Where a name gives a salt, the structure may show the parent alone.

We go through 27 compounds from patent US20070099911A1, “Pyrroloquinolinone derivatives as 5-hydroxytryptamine-6 ligands” (Wyeth, priority 2005, published 2007).

The target in one data set is T1, human cloned 5-HT6 receptors (Homo sapiens, UniProt P50406).
T1 construct: expressed in transfected cells; host or cells: HeLa cells (membrane preparation)
T1 sequence (P50406 whole entry): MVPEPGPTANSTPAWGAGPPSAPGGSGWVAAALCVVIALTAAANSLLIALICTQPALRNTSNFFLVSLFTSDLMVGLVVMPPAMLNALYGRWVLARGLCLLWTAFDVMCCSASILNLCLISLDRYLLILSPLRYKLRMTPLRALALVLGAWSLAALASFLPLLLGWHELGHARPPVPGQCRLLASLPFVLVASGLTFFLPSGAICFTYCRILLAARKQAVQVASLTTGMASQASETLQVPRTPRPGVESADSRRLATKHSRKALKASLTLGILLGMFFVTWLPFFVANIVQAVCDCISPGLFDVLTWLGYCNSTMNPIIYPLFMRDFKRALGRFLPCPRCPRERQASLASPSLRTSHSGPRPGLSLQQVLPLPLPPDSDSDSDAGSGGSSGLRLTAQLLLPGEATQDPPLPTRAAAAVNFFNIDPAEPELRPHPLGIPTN
The data set is described as follows: Comparative evaluation of 5-HT6 binding affinity ([3H]-LSD displacement, Hela cell membranes).
Details: not given
On the procedure: Comparative Evaluation of 5-HT6 Binding Affinity of Test Compounds
The affinity of test compounds for the 5-HT6 receptor is evaluated in the following manner. Cultured Hela cells expressing human cloned 5-HT6 receptors are harvested and centrifuged at low speed (1,000×g) for 10.0 min to remove the culture media. The harvested cells are suspended in half volume of fresh physiological phosphate buffered saline (PBS) solution and recentrifuged at the same speed. This operation is repeated. The collected cells are then homogenized in ten volumes of 50 mM Tris.HCl (pH 7.4) and 0.5 mM EDTA. The homogenate is centrifuged at 40,000×g for 30.0 min, and the precipitate is collected. The obtained pellet is resuspended in 10 volumes of Tris.HCl buffer and recentrifuged at the same speed. The final pellet is suspended in a small volume of Tris.HCl buffer, and the tissue protein content is determined in aliquots of 10-25 microliter volumes. Bovine Serum Albumin is used as the standard in the protein determination according to the method described in Lowry et al., J. Biol. Chem. 1951, 193, 265. The volume of the suspended cell membranes is adjusted to give a tissue protein concentration of 1.0 mg/ml of suspension. The prepared membrane suspension (10 times concentrated) is aliquoted in 1.0 ml volumes and stored at −70° C. until used in subsequent binding experiments.
The reaction is allowed to proceed in the dark for 120 min at room temperature, at which time, the bound ligand-receptor complex is filtered off on a 96-well unifilter with a Packard Filtermate® 196 Harvester. The bound complex caught on the filter disk is allowed to air dry, and the radioactivity is measured in a Packard TopCount® equipped with six photomultiplier detectors, after the addition of 40.0 micoliters Micorscint®-20 scintillant to each shallow well. The unifilter plate is heat-sealed and counted in a Packard TopCount® with a tritium efficiency of 31%.
Specific binding to eh 5-HT6 receptor is defined as the total radioactivity bound less the amount bound in the presence of […] unlabelled methiothipin. Binding in the presence of varying concentrations of test compound is expressed as a percentage of specific binding in the absence of test compound. The results are plotted as log % bound versus log concentration of the test compound. […] A linear regression is plotted, from which the IC50 value is determined, and the Ki value is determined based upon the following equation: Ki=IC50/(1+L/KD) where L is the concentration of the radioactive ligand used and KD is the dissociation constant of the ligand for the receptor, both expressed in nM.
Take `Cn1ccc2c(ccc3[nH]cc(CCN)c32)c1=O` [Example 94]: the affinity, expressed as Ki, was 18 nM.
The same measure, in the same setting: the same measure for `NCCc1c[nH]c2ccc3c(=O)n(Cc4ccccc4)ccc3c12` [Example 182]: 11 nM.
On the same count and under the same terms, the value for `NCCc1c[nH]c2ccc3c(=O)n(CC4CCCCC4)ccc3c12` [Example 269, 1-(2-aminoethyl)-7-cyclohexylmethyl-3H,7H-pyrrolo[3,2-]isoquinolin-6-one] was 13 nM; that for `NCCc1c[nH]c2ccc3c(=O)n(Cc4ccsc4)ccc3c12` [Example 274, 1-(2-aminoethyl)-7-thiophen-3-ylmethyl-3H,7H-pyrrolo[3,2-f]isoquinolin-6-one] was 11 nM; that for `CNCCc1c[nH]c2ccc3c(=O)[nH]ccc3c12` [Example 1021, 1-(2-methylaminoethyl)-3H,7H-pyrrolo[3,2-f]isoquinolin-6-one] was 21 nM.
The same measure, in the same setting: the value for `NCCc1c[nH]c2ccc3c(=O)n(Cc4ccccc4)cnc3c12` [Example 1029] was 32 nM.

Staying with this data set, now noted: [3H]-LSD displacement, membranes of Hela cells expressing human cloned 5-HT6 receptors; read-out: 5-HT6 binding Ki.
On to `O=c1[nH]ccc2c3c(ccc12)N=CC3CCNCc1ccccc1` (stereo not shown) [Example 7A, 1-(2-Benzylaminoethyl)-6,7-dihydro-1H-pyrrolo[3,2-f]isoquinolin-6-one], for which the Ki is 15 nM.

Test system in a further data set: not given
Assay: not given
Details: not given
`Cn1cnc2c(ccc3[nH]cc(CCN)c32)c1=O` returned a melting point of 279 to 285 °C.
The same measure, in the same setting: the same measure for `NCCc1c(Br)[nH]c2ccc3c(=O)[nH]ccc3c12` (as salt: HBr): 252 °C (dec.); for `O=c1[nH]ccc2c1ccc1[nH]cc(CCN(Cc3ccccc3)Cc3ccccc3)c12` (as salt: HCl): 250 to 253 °C; for `O=c1[nH]ccc2c3c(ccc12)N=CC3CCNCc1ccccc1` (stereo not shown) (as salt: HCl) [Example 7A, 1-(2-Benzylaminoethyl)-6,7-dihydro-1H-pyrrolo[3,2-f]isoquinolin-6-one]: 210 °C.
Same read-out and setting: the value for `Cn1ccc2c(ccc3[nH]cc(CCNCCc4ccccc4)c32)c1=O` (as salt: HCl) [Example 95, 7-methyl-1-(2-phenethylaminoethyl)-3H,7H-pyrrolo[3,2-f]isoquinolin-6-one] was 205 to 208 °C.
Same read-out and setting: the value for `O=c1c2ccc3c(c(CCN(Cc4ccccc4)Cc4ccccc4)cn3Cc3ccccc3)c2ccn1Cc1ccccc1` (as salt: HCl) [Example 1018, 3,7-dibenzyl-1-(2-dibenzylaminoethyl)-3H,7H-pyrrolo[3,2-f]isoquinolin-6-one] was 234 to 236 °C.
Compound `CNCCc1c[nH]c2ccc3c(=O)[nH]ccc3c12` (as salt: HCl) [Example 1021, 1-(2-methylaminoethyl)-3H,7H-pyrrolo[3,2-f]isoquinolin-6-one] returned a melting point of 160 °C.
The same measure, in the same setting: the value for `CN(CCc1c[nH]c2ccc3c(=O)[nH]ccc3c12)Cc1ccccc1` (as salt: hydrochloride) was 152 to 155 °C; that for `NCCc1c[nH]c2ccc3c(=O)n(CCc4ccccc4)ccc3c12` (as salt: hydrochloride) was 162 to 166 °C; that for `CCn1ccc2c(ccc3[nH]cc(CCN)c32)c1=O` (as salt: hydrochloride) was 224 to 227 °C.
The compound `NCCc1c[nH]c2ccc3c(=O)n(CC4CCCCO4)ccc3c12` (stereo not shown) (as salt: hydrochloride) had a melting point of 260 to 262 °C.
On the same count and under the same terms, the value for `NCCc1c[nH]c2ccc3c(=O)n(Cc4ccc(F)cc4)ccc3c12` (as salt: hydrochloride) was 247 to 249 °C; that for `NCCc1c[nH]c2ccc3c(=O)n(Cc4ccccc4F)ccc3c12` (as salt: hydrochloride) was above 250 °C; that for `NCCc1c[nH]c2ccc3c(=O)[nH]ccc3c12` (as salt: hydrochloride) was above 280 °C.
Same read-out and setting: the value for `Cn1ccc2c(ccc3[nH]cc(CCN)c32)c1=O` (as salt: hydrochloride) [Example 94] was 295 to 298 °C.
Same read-out and setting: the same measure for `NCCc1c[nH]c2ccc3c(=O)n(Cc4ccccc4)ccc3c12` (as salt: hydrochloride) [Example 182]: 266 to 268 °C; for `NCCCc1c[nH]c2ccc3c(=O)[nH]ccc3c12` (as salt: hydrochloride) [Example 268, 1-(3-aminopropyl)-3H,7H-pyrrolo[3,2-f]isoquinolin-6-one]: 225 to 230 °C; for `NCCc1c[nH]c2ccc3c(=O)n(CC4CCCCC4)ccc3c12` (as salt: hydrochloride) [Example 269, 1-(2-aminoethyl)-7-cyclohexylmethyl-3H,7H-pyrrolo[3,2-]isoquinolin-6-one]: 220 to 224 °C.
`NCCc1c(-c2ccc(Cl)cc2)[nH]c2ccc3c(=O)[nH]ccc3c12` (as salt: hydrochloride) [Example 278, 1-(2-aminoethyl)-2-(4-chlorophenyl)-3H,7H-pyrrolo[3,2-f]isoquinolin-6-one] returned a melting point above 300 °C.
The compound `O=c1c2ccc3[nH]cc(CCNS(=O)(=O)c4ccccc4)c3c2ccn1Cc1ccccc1` [Example 1022, N-[2-(7-benzyl-6-oxo-6,7-dihydro-3H-pyrrolo[3,2-f]isoquinolin-1-yl)-ethyl]-benzenesulfonamide] returned a melting point of 205 to 206 °C.
Take `NCCc1c[nH]c2ccc3c(=O)n(Cc4ccccc4)cnc3c12` [Example 1029]: the melting point lay within 302 to 305 °C.
